Tests used:
[1] = biological target: T1, RyR2 (Mus musculus, UniProt E9Q401); assay: Time-lapse [Ca2+]ER assay (RyR2 R-CEPIA1er assay) in HEK-293 cells with inducible WT RyR2; type: cell-based; settings: for effect on [Ca2+]ER / R-CEPIA1er fluorescence (F/F0): 25 μM, vs 0.1 v/v% DMSO
T1 construct: expressed in transfected cells; host or cells: HEK-293 cells stably expressing R-CEPIA1er with doxycycline-inducible WT RyR2
Excerpt: To assess the functional potency of novel agents for modulating RyR2 channel activity, we measured changes in Ca^2+ levels in ER of HEK-293 cells with inducible expression of wild-type RyR2 (WT RyR2).[33],[34] Because the expression of WT RyR2 introduces an additional spontaneous Ca^2+ leak from the ER, these cells are suitable for our purpose of testing potential RyR2 stabilizers.[35] The cells additionally stably express the Ca^2+ fluorescence indicator R-CEPIA1er, which is a genetically encoded sensor protein of Ca^2+ in the ER (the cell line was a gift from T. Murayama, Department of Pharmacology, Juntendo University School of Medicine, Tokyo, Japan).[36]
The addition of these compounds, which are known to inhibit excessive cardiac RyR2 activity, should reduce Ca^2+ leak from the ER, thus increasing the R-CEPIA1er fluorescence.
The fluorescence plate reader [Ca^2+]ER assay was performed according to the slightly modified protocol of Murayama and Kurebayashi.[36] […] After the cells were inducted with doxycycline for 24 h, changes in ER calcium concentrations [Ca^2+]ER were measured on a multiwell plate reader TECAN Spark 20 M at 37 °C. The 1000 × stock solutions of the test compounds were prepared in DMSO. Briefly, the culture medium was removed and 100 μL of Tyrode’s solution containing 2 mM CaCl2 was added to the cells. The time courses were recorded in each well. Fluorescence was evoked by a 560 nm excitation wavelength and collected in a bottom-read mode at 610 nm. Data was recorded every 10 s, exposure −20 flashes, excitation bandwidth −20 nm, emission bandwidth −20 nm. 100 μL of 0–100 μM solution of test compound in Tyrode’s solution containing 2 mM CaCl2 was injected in each well (speed 100 μL/s) at the 90 s time point. […] The 0.1 v/v% DMSO and 2 mM CaCl2 Tyrode’s solution was used as a control.
The dose–response curves were calculated using the software package GraphPad Prism version 8.3.1. (GraphPad Software, Inc.). All data are presented as mean ± SD in three independent experiments. Y = bottom + (top – bottom)/(1 + 10^((LogEC50 – X) × HillSlope)) was used, where HillSlope describes the steepness of the curve, and top and bottom are plateaus in the units of the Y-axis.

[2] = biological target: T2, SERCA2a (Mus musculus, UniProt O55143); assay: Caffeine-induced Ca2+ release assay in HL-1 cells (FLIPR Calcium 6); type: cell-based; settings: HL-1 cells, 2 h incubation at various concentrations, 10 mM caffeine
T2 construct: host or cells: HL-1 cells
Excerpt: It is known that caffeine stimulates the release of calcium from intracellular stores in cells by acting as a RyR activator.[39],[40] The binding site for caffeine is located on the cytosolic side of the protein between the C-terminal and the S2S3 domain.[41] When caffeine binds to RyR2, it interacts with specific amino acids on the protein, which causes conformational changes in the protein’s structure.[42] This opens the RyR2 channel pore, enabling the mass release of calcium ions from the SR. We investigated the effect of caffeine-induced Ca^2+ release in HL-1 cells treated with cytosolic Ca^2+ indicator FLIPR Calcium 6 (Molecular Devices). The HL-1 cell line is an immortalized mouse cardiomyocyte cell line commonly used to study the effects of various substances on cell function.[43] If the tested compound modulates SERCA2a activation, it will cause an increase in Ca^2+ concentration in the SR and the effect of a fixed dose of caffeine on SR Ca^2+ release will be potentiated by increasing doses of a proposed SERCA activator.[26] As a positive control, we used CDN1163, a small-molecule SERCA activator, which is at present in a clinical trial due to its potential therapeutic use for certain cardiac conditions.[27]
HL-1 cells (50,000 per well) were cultivated for 24 h in black-walled, clear-bottom 96-well microplates (Corning, Amsterdam, The Netherlands) covered with fibronectin/gelatin (Merck KGaA, Darmstadt, Germany) in a humidified incubator at 37 °C and 5% CO2.
Changes in Ca^2+ concentration were measured on a multiwell plate reader TECAN Spark 20 M using a FLIPR 6 Calcium Assay Kit from Molecular Devices (Molecular Devices LLC, München, Germany) at 37 °C. The 1000 × stock solutions of the test compounds were prepared in DMSO. A 100 μL solution of test compound in Tyrode’s solution containing FLIPR Calcium 6 dye was incubated for 2 h at 37 °C and 5% CO2 in a humidified incubator. The time courses were recorded in each well. Fluorescence was evoked at 485 nm excitation wavelength and read out in a bottom-read mode at 525 nm. Data were recorded every 2 s, exposure −20 flashes, excitation bandwidth −10 nm, emission bandwidth −15 nm. To initiate Ca^2+ influx, 25 μL of 50 mM caffeine solution in Tyrode’s solution containing 2 mM CaCl2 was injected in each well (speed 100 μL/s) at the 10 s time point, resulting in 10 mM final concentration in the well. The differences between the caffeine-induced peak minus basal fluorescence, ΔFCaff, were taken into account for the analysis. The Tyrode’s solution +0.1 v/v% DMSO was used as a control. The dose–response curves were calculated using the software package GraphPad Prism version 8.3.1. All data are presented as mean ± SD from eight independent experiments. Y = bottom + (top – bottom)/(1 + 10^((LogEC50 – X) × HillSlope)) was used, where HillSlope describes the steepness of the curve and top and bottom are plateaus in the units of the Y axis.

[3] = CytoTox-Glo Cytotoxicity Assay; type: cell-based; settings: mouse; HL-1 cells, 100 μM solutions, 24 h incubation
Experimental: Cell viability was assessed using the CytoTox-Glo Cytotoxicity Assay according to the manufacturing procedure (Promega GmbH). Briefly, HL-1 cells were cultivated for 24 h in black-walled, clear-bottom 96-well microplates (Corning) covered with fibronectin in DMEM, containing different concentrations of the tested compound (10,000 cells/well). Luminescence of a luminogenic peptide substrate was measured before and after the addition of the lysis reagent (digitonin). The viable cell contribution was determined by a subtractive method. 0.1% DMSO-treated cells were taken as a control.

[4] = Membrane permeability, PermeaPad Plate (cell-free transport model); type: in vitro ADME; settings: for Pe: 24 h, room temperature; for Pe class (low/medium/high; poor): class word printed beside Pe, no key given
Experimental: Membrane permeability was assessed using PermeaPad Plate according to the manufacturing procedure (innoME GmbH, Espelkamp, Germany). Briefly, 200 μL of water was added into the acceptor plate. 200 μL of 100–500 μM test compound in water was added directly to the well membranes of the donor plate. The donor plate contains a biomimetic membrane for simulating passive mass transfer through different barriers in the body. Then, the donor plate was placed into the acceptor plate wells and incubated at room temperature for 24 h in the dark. To determine the peak absorbance of test compounds, absorbance spectra of acceptor solutions and initial solutions for each test compound were read out. The permeability rate (Pe) was calculated using the formula:
[drawing 1] , where ODA is the absorbance of acceptor solution and ODE is the absorbance of the standard solution; if the compound is able to permeabilize the membrane and fully reach equilibrium, 250 μM will be the final concentration of solution in the donor and acceptor wells. The coefficient C was calculated using the formula:
[drawing 2] , where VA is the acceptor volume (cm^3), VD is the donor volume (cm^3), the membrane area is 0.24 cm^2, and the time is 86,400 s.

T2 sequence (O55143 1-998 isoform O55143-2): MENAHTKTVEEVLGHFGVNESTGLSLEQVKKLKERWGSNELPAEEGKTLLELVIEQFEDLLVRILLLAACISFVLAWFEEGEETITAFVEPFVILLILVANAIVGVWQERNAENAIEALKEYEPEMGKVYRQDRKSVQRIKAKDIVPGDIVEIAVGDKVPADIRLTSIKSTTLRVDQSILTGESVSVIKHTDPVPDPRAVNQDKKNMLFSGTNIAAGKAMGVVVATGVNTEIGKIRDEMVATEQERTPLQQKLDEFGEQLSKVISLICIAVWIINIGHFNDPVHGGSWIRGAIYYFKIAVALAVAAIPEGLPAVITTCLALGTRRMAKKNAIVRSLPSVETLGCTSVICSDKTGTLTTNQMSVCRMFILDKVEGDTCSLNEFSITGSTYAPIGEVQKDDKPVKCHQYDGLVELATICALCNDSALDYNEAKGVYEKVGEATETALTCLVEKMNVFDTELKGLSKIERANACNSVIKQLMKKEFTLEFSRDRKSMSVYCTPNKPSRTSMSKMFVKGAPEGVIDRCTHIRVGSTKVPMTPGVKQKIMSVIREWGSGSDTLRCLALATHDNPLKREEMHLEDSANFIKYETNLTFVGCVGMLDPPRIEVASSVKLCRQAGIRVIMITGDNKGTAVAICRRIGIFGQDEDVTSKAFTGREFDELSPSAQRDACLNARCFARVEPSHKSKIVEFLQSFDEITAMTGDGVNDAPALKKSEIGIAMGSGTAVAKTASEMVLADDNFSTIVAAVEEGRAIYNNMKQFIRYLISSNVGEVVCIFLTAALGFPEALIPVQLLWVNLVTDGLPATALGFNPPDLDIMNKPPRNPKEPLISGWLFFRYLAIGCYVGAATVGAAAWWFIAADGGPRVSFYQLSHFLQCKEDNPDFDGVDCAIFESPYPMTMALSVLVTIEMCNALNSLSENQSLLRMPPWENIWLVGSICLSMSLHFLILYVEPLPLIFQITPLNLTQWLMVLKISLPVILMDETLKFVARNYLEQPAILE

Row | SMILES | RyR2 effect class ([1]; 25 μM (S107 1 mM per Figure 2), HEK-293 RyR2 R-CEPIA1er cells) | effect on [Ca2+]ER / R-CEPIA1er fluorescence (F/F0) [1] | effect on caffeine-induced Ca2+ release (in words) [2] | viability at 24 h, 100 μM [3] | Pe [4] | Pe class (low/medium/high; poor) [4]
1 | COc1ccc2c(c1)CN(C(=O)C(=O)O)CCS2 [S36, reference compound] | +++ | increase in R-CEPIA1er fluorescence | no concentration-dependent effect | 94% | 1.0 10^–6 cm/s | poor permeability and low
2 | O=C1CN(/N=C/c2ccc(-c3ccc([N+](=O)[O-])cc3)o2)C(=O)N1 [dantrolene, reference compound] |  | increase in R-CEPIA1er fluorescence |  |  |  | 
3 | COc1ccc2c(c1)CN(C)CCS2 [S107, 4-methyl-7-methoxy-2,3,4,5-tetrahydro-1,4-benzothiazepine, reference compound] |  |  | did not show any effects on SR Ca^2+ content | 98% | 1.2 10^–6 cm/s | medium
4 | Cc1ccc2cccc(NC(=O)c3ccc(OC(C)C)cc3)c2n1 [CDN1163, reference compound] |  |  | clear dependence of the magnitude of the caffeine effect from the concentration of CDN1163 |  |  | 
